From article PMC7725506, “Functional Diversification of SRSF Protein Kinase to Control Ubiquitin-Dependent Neurodevelopmental Signaling” (Developmental Cell, 2020) come the findings set out here.

This assay addresses T1, SRPK2 (Mus musculus, UniProt O54781).
T1 construct: endogenous in cells; host or cells: mESCs (CCE line)
Nature of the assay: SRPK2 immunoprecipitation kinase assay from inhibitor-treated mESCs with RNF12 as substrate. The following applies: mESCs pre-treated with 10 μM for 4 h. In kind it is cell-based. The protocol: SRSF phosphorylation, SRPK1, SRPK2, and ERK1/2 levels were determined by immunoblotting. Expected positions of SRSFs that are not detected are shown in gray. Quantification of SRSF phosphorylation (Right). Data represented as mean ± SEM (n = 4). […] Neuro 2a is a control for exon 16b exclusion in differentiated cells (Bottom). Data represented as mean ± SEM (n = 3). […] Exon 16 inclusion: (^∗∗∗∗) p < 0.0001, Exon 16b inclusion: (^∗) p = 0.0164, p = 0.0485, and p = 0.0489 (left to right). Ratio exon 16b/16: (^∗∗∗∗) p < 0.0001, (^∗∗∗) p = 0.0003. (C) SRPK substrates predicted using ScanProsite and grouped according to UniProt functions. (D) RNF12 phosphorylation sites detected by mass-spectrometry. LZL, leucine-zipper like; NLS, nuclear localization signal; NES, nuclear export signal; RING, RING E3 ubiquitin ligase catalytic domain. (E) CMGC family kinase copy numbers in mESCs determined by quantitative proteomics and represented using Kinoviewer. (F) CMGC kinase (200 mU) phosphorylation of the RNF12 SR-motif in vitro was determined by immunoblotting for RNF12 phospho-Ser214 and total RNF12. […] Normalized RNF12 Ser214 phosphorylation is shown below. Data represented as mean ± SEM (n = 3). […] RNF12 SR-motif phosphorylation was analyzed by immunoblotting for RNF12 phospho-Ser214 and RNF12. SRPK1 and SRPK2 levels are shown as a loading control, Related to Figure S1; Tables S1 and S2. […]

T1 sequence (O54781 whole entry): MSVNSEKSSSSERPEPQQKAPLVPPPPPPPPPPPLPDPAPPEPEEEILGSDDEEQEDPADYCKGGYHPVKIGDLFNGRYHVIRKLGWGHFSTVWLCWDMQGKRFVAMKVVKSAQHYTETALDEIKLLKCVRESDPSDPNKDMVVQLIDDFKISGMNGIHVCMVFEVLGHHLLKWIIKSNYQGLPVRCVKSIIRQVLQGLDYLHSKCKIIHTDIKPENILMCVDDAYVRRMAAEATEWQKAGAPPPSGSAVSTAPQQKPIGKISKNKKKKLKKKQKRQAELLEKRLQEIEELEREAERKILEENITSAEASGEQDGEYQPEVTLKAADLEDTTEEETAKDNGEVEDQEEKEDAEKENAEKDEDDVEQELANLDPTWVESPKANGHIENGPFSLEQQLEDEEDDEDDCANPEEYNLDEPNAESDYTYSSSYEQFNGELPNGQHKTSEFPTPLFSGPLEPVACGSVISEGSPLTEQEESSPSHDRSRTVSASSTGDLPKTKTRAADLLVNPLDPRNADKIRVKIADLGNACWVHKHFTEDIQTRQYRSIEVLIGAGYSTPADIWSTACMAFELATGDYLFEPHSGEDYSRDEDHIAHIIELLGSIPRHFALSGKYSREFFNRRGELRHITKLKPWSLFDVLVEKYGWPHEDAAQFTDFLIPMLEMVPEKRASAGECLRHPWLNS

For the compound `CCc1cc2c(cc1-c1cccc(S(=O)(=O)F)c1)C(C)(C)c1[nH]c3cc(C#N)ccc3c1C2=O` [SRPKIN-1], the “inhibition of SRPK2 in vivo (ability of immunoprecipitates to phosphorylate RNF12)” value is given as “potently inhibited”.
